In US20260297080A1, “BICYCLIC COMPOUNDS AS CDK INHIBITORS” (BeOne Medicines I GmbH, priority 2022, published 2026):

How the values were obtained:
CDK2/Cyclin E1 = CDK2/Cyclin E1 (Homo sapiens, UniProt P24941); assay: CDK2/Cyclin E1 Biochemical Assay (TR-FRET), 0.060 mM ATP; conditions: 0.15 μM Rb (Ser780)-biotin substrate, pH7.0, 60 min preincubation, 120 min reaction, room temperature
Procedure, shortened: (§1)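 IC50 was from a four-parameter logistic fit of the 665/620 nm TR-FRET ratio (Eu anti-pRb Ser780 mAb, streptavidin-XL665). Compound (0-10 μM) was preincubated 60 min with enzyme, then reacted 120 min at room temperature with 0.15 μM biotinylated Rb (Ser780) peptide. ATP was 0.015 mM for CDK1/Cyclin B1 and 0.060 mM for CDK2/Cyclin E1; buffer was HEPES pH7.0.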

CDK1/Cyclin B1 = CDK1/Cyclin B1 (Homo sapiens, UniProt P06493); assay: CDK1/Cyclin B1 Biochemical Assay (TR-FRET), 0.015 mM ATP; conditions: 0.15 μM Rb (Ser780)-biotin substrate, pH7.0, 60 min preincubation, 120 min reaction, room temperature
Procedure, shortened: as §1

Sequence of CDK1/Cyclin B1 (P06493 whole entry): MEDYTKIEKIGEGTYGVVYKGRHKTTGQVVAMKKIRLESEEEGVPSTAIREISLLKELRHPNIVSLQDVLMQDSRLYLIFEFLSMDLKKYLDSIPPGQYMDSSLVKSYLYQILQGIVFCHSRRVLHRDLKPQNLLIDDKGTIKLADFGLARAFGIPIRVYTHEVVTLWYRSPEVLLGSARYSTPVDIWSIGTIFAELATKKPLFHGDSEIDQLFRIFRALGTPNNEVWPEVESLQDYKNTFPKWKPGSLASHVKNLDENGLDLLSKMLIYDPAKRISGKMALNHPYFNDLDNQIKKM
Sequence of CDK1/Cyclin B1 (P14635 whole entry partner): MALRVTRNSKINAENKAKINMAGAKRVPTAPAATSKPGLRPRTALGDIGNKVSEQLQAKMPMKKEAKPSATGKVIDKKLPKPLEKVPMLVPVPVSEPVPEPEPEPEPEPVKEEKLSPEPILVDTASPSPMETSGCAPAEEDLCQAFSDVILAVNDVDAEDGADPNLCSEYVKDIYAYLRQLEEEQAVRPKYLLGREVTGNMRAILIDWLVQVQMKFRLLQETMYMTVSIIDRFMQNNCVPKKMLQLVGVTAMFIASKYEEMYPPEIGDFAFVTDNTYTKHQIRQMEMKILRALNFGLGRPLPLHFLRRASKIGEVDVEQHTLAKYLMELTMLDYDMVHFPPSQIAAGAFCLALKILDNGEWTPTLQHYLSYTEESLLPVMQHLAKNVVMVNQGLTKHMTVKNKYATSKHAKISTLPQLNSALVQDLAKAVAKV

Row | SMILES | IC50 (CDK2/Cyclin E1) | IC50 (CDK1/Cyclin B1)
1 | Cc1c(Nc2cc([C@@H]3CC[C@H](OC(=O)NC(C)C)C3)[nH]n2)ccc2c1CS(=O)(=O)N2 (relative stereo) [Example 240, cis-3-(3-((4-methyl-2,2-dioxido-1,3-dihydrobenzo[c]isothiazol-5-yl)amino)-1H-pyrazol-5-yl)cyclopentyl isopropylcarbamate] | 3 nM | 28 nM
2 | CC(C)NC(=O)O[C@H]1CC[C@@H](c2cc(Nc3ccc4c(c3)CS(=O)(=O)N4CCN3CCOCC3)n[nH]2)C1 (relative stereo) [Example 212, cis-3-(3-((1-(2-morpholinoethyl)-2,2-dioxido-1,3-dihydrobenzo[c]isothiazol-5-yl)amino)-1H-pyrazol-5-yl)cyclopentyl isopropylcarbamate] | 3.5 nM | 60 nM
3 | CC[C@H](C)NC(=O)O[C@H]1CC[C@@H](c2cc(Nc3ccc4c(c3F)CN(C3CC3)S4(=O)=O)n[nH]2)C1 (racemic) [Example 117, cis-3-(3-((2-cyclopropyl-4-fluoro-1,1-dioxido-2,3-dihydrobenzo[d]isothiazol-5-yl)amino)-1H-pyrazol-5-yl)cyclopentyl((S)-sec-butyl)carbamate] | 9.6 nM | 431 nM
4 | CC(C)NC(=O)O[C@H]1CC[C@@H](c2cc(Nc3ccc4c(c3F)CN(C3CCNC3=O)S4(=O)=O)n[nH]2)C1 (relative stereo) [Example 79, cis-3-(3-((4-fluoro-1,1-dioxido-2-(2-oxopyrrolidin-3-yl)-2,3-dihydrobenzo[d]isothiazol-5-yl)amino)-1H-pyrazol-5-yl)cyclopentyl isopropylcarbamate] | 8.3 nM | 638 nM
5 | CN1c2ccc(Nc3cc([C@@H]4CC[C@H](OC(=O)NC5(CO)CC5)C4)[nH]n3)cc2CS1(=O)=O (relative stereo) [Example 342, cis-3-(3-((1-methyl-2,2-dioxido-1,3-dihydrobenzo[c]isothiazol-5-yl)amino)-1H-pyrazol-5-yl)cyclopentyl(1-(hydroxymethyl)cyclopropyl)carbamate] | 4.9 nM | 61 nM
6 | CC(C)CN1Cc2c(ccc(Nc3cc([C@@H]4CC[C@H](OC(=O)NC(C)C)C4)[nH]n3)c2F)S1(=O)=O (relative stereo) [Example 101, cis-3-(3-((4-fluoro-2-isobutyl-1,1-dioxido-2,3-dihydrobenzo[d]isothiazol-5-yl)amino)-1H-pyrazol-5-yl)cyclopentyl isopropylcarbamate] | 10 nM | 1020 nM
7 | CC(C)NC(=O)O[C@H]1CC[C@@H](c2cc(Nc3cc4c(cc3Cl)S(=O)(=O)NC4)n[nH]2)C1 (relative stereo) [Example 27, cis-3-(3-((6-chloro-1,1-dioxido-2,3-dihydrobenzo[d]isothiazol-5-yl)amino)-1H-pyrazol-5-yl)cyclopentyl isopropylcarbamate] | 33 nM | 958 nM
8 | CN1Cc2c(ccc(Nc3cc([C@@H]4CC[C@H](OC(=O)NC5(C)CC5)C4)[nH]n3)c2F)S1(=O)=O (relative stereo) [Example 124, cis-3-(3-((4-fluoro-2-methyl-1,1-dioxido-2,3-dihydrobenzo[d]isothiazol-5-yl)amino)-1H-pyrazol-5-yl)cyclopentyl(1-methylcyclopropyl)carbamate] | 1.6 nM | 120 nM
9 | C[C@@H](CO)NC(=O)O[C@H]1CC[C@@H](c2cc(Nc3ccc4c(c3)CS(=O)(=O)N4C)n[nH]2)C1 (relative stereo) [Example 324, cis-3-(3-((1-methyl-2,2-dioxido-1,3-dihydrobenzo[c]isothiazol-5-yl)amino)-1H-pyrazol-5-yl)cyclopentyl((S)-1-hydroxypropan-2-yl)carbamate] | 3.3 nM | 83 nM
10 | CC1(NC(=O)O[C@H]2CC[C@@H](c3cc(Nc4ccc5c(c4F)CN(C4CC4)S5(=O)=O)n[nH]3)C2)COC1 (relative stereo) [Example 372, cis-3-(3-((2-cyclopropyl-4-fluoro-1,1-dioxido-2,3-dihydrobenzo[d]isothiazol-5-yl)amino)-1H-pyrazol-5-yl)cyclopentyl(3-methyloxetan-3-yl)carbamate] | 6.8 nM | 395 nM
11 | CC(=O)N1CC(N2Cc3c(ccc(Nc4cc([C@@H]5CC[C@H](OC(=O)NC(C)C)C5)[nH]n4)c3F)S2(=O)=O)C1 (relative stereo) [Example 90, cis-3-(3-((2-(1-acetylazetidin-3-yl)-4-fluoro-1,1-dioxido-2,3-dihydrobenzo[d]isothiazol-5-yl)amino)-1H-pyrazol-5-yl)cyclopentyl isopropylcarbamate] | 20 nM | 762 nM
12 | O=C(O[C@H]1CC[C@@H](c2cc(Nc3ccc4c(c3)CNS4(=O)=O)n[nH]2)C1)N1CCC(O)C1 (relative stereo) [Example 175, cis-3-(3-((1,1-dioxido-2,3-dihydrobenzo[d]isothiazol-5-yl)amino)-1H-pyrazol-5-yl)cyclopentyl 3-hydroxypyrrolidine-1-carboxylate] | 10 nM | 359 nM
13 | CN1c2ccc(Nc3cc([C@@H]4CC[C@H](OC(=O)NCC(C)(C)O)C4)[nH]n3)cc2CS1(=O)=O (relative stereo) [Example 238, cis-3-(3-((1-methyl-2,2-dioxido-1,3-dihydrobenzo[c]isothiazol-5-yl)amino)-1H-pyrazol-5-yl)cyclopentyl(2-hydroxy-2-methylpropyl)carbamate] | 16 nM | 153 nM
14 | CC(C)NC(=O)O[C@H]1CC[C@@H](c2cc(Nc3ccc4c(c3F)CN(C3CCN(S(C)(=O)=O)CC3)S4(=O)=O)n[nH]2)C1 (relative stereo) [Example 77, cis-3-(3-((4-fluoro-2-(1-(methylsulfonyl)piperidin-4-yl)-1,1-dioxido-2,3-dihydrobenzo[d]isothiazol-5-yl)amino)-1H-pyrazol-5-yl)cyclopentyl isopropylcarbamate] | 10 nM | 621 nM
15 | CCCNC(=O)O[C@H]1CC[C@@H](c2cc(Nc3ccc4c(c3)CS(=O)(=O)N4C)n[nH]2)C1 (relative stereo) [Example 221, cis-3-(3-((1-methyl-2,2-dioxido-1,3-dihydrobenzo[c]isothiazol-5-yl)amino)-1H-pyrazol-5-yl)cyclopentyl propylcarbamate] | 8.6 nM | 49 nM
16 | CC1(NC(=O)O[C@H]2CC[C@@H](c3cc(Nc4ccc5c(c4)CCS(=O)(=O)N5)n[nH]3)C2)CC1 (single isomer, unassigned) [Example 249b, cis-3-(3-((2,2-dioxido-3,4-dihydro-1H-benzo[c][1,2]thiazin-6-yl)amino)-1H-pyrazol-5-yl)cyclopentyl(1-methylcyclopropyl)carbamate] | 0.6 nM | 12 nM
17 | CC1(NC(=O)O[C@H]2CC[C@@H](c3cc(Nc4ccc5c(c4Cl)CNS5(=O)=O)n[nH]3)C2)CC1 (single isomer, unassigned) [Example 40b, cis-3-(3-((4-chloro-1,1-dioxido-2,3-dihydrobenzo[d]isothiazol-5-yl)amino)-1H-pyrazol-5-yl)cyclopentyl(1-methylcyclopropyl)carbamate] | 3.1 nM | 181 nM
18 | Cc1c(Nc2cc([C@@H]3CC[C@H](OC(=O)NC(C)C)C3)[nH]n2)ccc2c1CNS2(=O)=O (relative stereo) [Example 34, cis-3-(3-((4-methyl-1,1-dioxido-2,3-dihydrobenzo[d]isothiazol-5-yl)amino)-1H-pyrazol-5-yl)cyclopentyl isopropylcarbamate] | 1.9 nM | 81 nM
19 | CC(C)NC(=O)OC1CC(c2cc(Nc3ccc4c(c3F)CNS4(=O)=O)n[nH]2)C1 (stereo not shown) [Example 137, 3-(3-((4-fluoro-1,1-dioxido-2,3-dihydrobenzo[d]isothiazol-5-yl)amino)-1H-pyrazol-5-yl)cyclobutyl isopropylcarbamate] | 35 nM | 375 nM
20 | CC(C)NC(=O)O[C@H]1CC[C@@H](c2cc(Nc3ccc4c(c3F)C(C)NS4(=O)=O)n[nH]2)C1 (single isomer, unassigned) [Example 51d, cis-3-(3-((4-fluoro-3-methyl-1,1-dioxido-2,3-dihydrobenzo[d]isothiazol-5-yl)amino)-1H-pyrazol-5-yl)cyclopentyl isopropylcarbamate] | 8.7 nM | 447 nM
